Active and inactive are the calls of the source. The calls are words filed in the database; no cut-off is given here.
Columns and labels:
Type in all cases: functional, organism-based
Details in all cases: Trachea
Pseudomonas aeruginosa [1] = assay: Antimicrobial activity against Pseudomonas aeruginosa 65.38-3 tracheal isolates from mechanically ventilated tuberculosis patient
Pseudomonas aeruginosa [2] = assay: Antimicrobial activity against Pseudomonas aeruginosa 1A9 tracheal isolates from mechanically ventilated tuberculosis patient
Pseudomonas aeruginosa [3] = assay: Antimicrobial activity against Pseudomonas aeruginosa 1B9 tracheal isolates from mechanically ventilated tuberculosis patient
Pseudomonas aeruginosa [4] = assay: Antimicrobial activity against Pseudomonas aeruginosa 2C1 tracheal isolates from mechanically ventilated tuberculosis patient
Pseudomonas aeruginosa [5] = assay: Antimicrobial activity against Pseudomonas aeruginosa 2A2 tracheal isolates from mechanically ventilated tuberculosis patient
Pseudomonas aeruginosa [6] = assay: Antimicrobial activity against Pseudomonas aeruginosa 2C2 tracheal isolates from mechanically ventilated tuberculosis patient
Pseudomonas aeruginosa [7] = assay: Antimicrobial activity against Pseudomonas aeruginosa 2A3 tracheal isolates from mechanically ventilated tuberculosis patient
Pseudomonas aeruginosa [8] = assay: Antimicrobial activity against Pseudomonas aeruginosa 2A5 tracheal isolates from mechanically ventilated tuberculosis patient
Pseudomonas aeruginosa [9] = assay: Antimicrobial activity against Pseudomonas aeruginosa 2B5 tracheal isolates from mechanically ventilated tuberculosis patient
Pseudomonas aeruginosa [10] = assay: Antimicrobial activity against Pseudomonas aeruginosa 2A6 tracheal isolates from mechanically ventilated tuberculosis patient
Pseudomonas aeruginosa [11] = assay: Antimicrobial activity against Pseudomonas aeruginosa 2F6 tracheal isolates from mechanically ventilated tuberculosis patient
Pseudomonas aeruginosa [12] = assay: Antimicrobial activity against Pseudomonas aeruginosa 2A7 tracheal isolates from mechanically ventilated tuberculosis patient
Pseudomonas aeruginosa [13] = assay: Antimicrobial activity against Pseudomonas aeruginosa 2A9 tracheal isolates from mechanically ventilated tuberculosis patient
Pseudomonas aeruginosa [14] = assay: Antimicrobial activity against Pseudomonas aeruginosa 3B1 tracheal isolates from mechanically ventilated tuberculosis patient
Pseudomonas aeruginosa [15] = assay: Antimicrobial activity against Pseudomonas aeruginosa 65.68-1 tracheal isolates from mechanically ventilated tuberculosis patient
Pseudomonas aeruginosa [16] = assay: Antimicrobial activity against Pseudomonas aeruginosa 65.68-2 tracheal isolates from mechanically ventilated tuberculosis patient
Pseudomonas aeruginosa [17] = assay: Antimicrobial activity against Pseudomonas aeruginosa 65.68-3 tracheal isolates from mechanically ventilated tuberculosis patient
Pseudomonas aeruginosa [18] = assay: Antimicrobial activity against Pseudomonas aeruginosa 65.68-4 tracheal isolates from mechanically ventilated tuberculosis patient
Pseudomonas aeruginosa [19] = assay: Antimicrobial activity against Pseudomonas aeruginosa P21.21 tracheal isolates from mechanically ventilated tuberculosis patient
Pseudomonas aeruginosa [20] = assay: Antimicrobial activity against Pseudomonas aeruginosa 65.18-1 tracheal isolates from mechanically ventilated tuberculosis patient
Pseudomonas aeruginosa [21] = assay: Antimicrobial activity against Pseudomonas aeruginosa 65.18-2 tracheal isolates from mechanically ventilated tuberculosis patient
Pseudomonas aeruginosa [22] = assay: Antimicrobial activity against Pseudomonas aeruginosa 65.18-3 tracheal isolates from mechanically ventilated tuberculosis patient
Pseudomonas aeruginosa [23] = assay: Antimicrobial activity against Pseudomonas aeruginosa 65.18-4 tracheal isolates from mechanically ventilated tuberculosis patient
Pseudomonas aeruginosa [24] = assay: Antimicrobial activity against Pseudomonas aeruginosa P21.23 tracheal isolates from mechanically ventilated tuberculosis patient
Pseudomonas aeruginosa [25] = assay: Antimicrobial activity against Pseudomonas aeruginosa IA5 tracheal isolates from mechanically ventilated tuberculosis patient
Pseudomonas aeruginosa [26] = assay: Antimicrobial activity against Pseudomonas aeruginosa IC7 tracheal isolates from mechanically ventilated tuberculosis patient
Pseudomonas aeruginosa [27] = assay: Antimicrobial activity against Pseudomonas aeruginosa 65.33-1 tracheal isolates from mechanically ventilated tuberculosis patient
Pseudomonas aeruginosa [28] = assay: Antimicrobial activity against Pseudomonas aeruginosa 65.33-4 tracheal isolates from mechanically ventilated tuberculosis patient
Pseudomonas aeruginosa [29] = assay: Antimicrobial activity against Pseudomonas aeruginosa 65.38-1 tracheal isolates from mechanically ventilated tuberculosis patient
Pseudomonas aeruginosa [30] = assay: Antimicrobial activity against Pseudomonas aeruginosa 65.38-4 tracheal isolates from mechanically ventilated tuberculosis patient
Pseudomonas aeruginosa [31] = assay: Antimicrobial activity against Pseudomonas aeruginosa 1C9 tracheal isolates from mechanically ventilated tuberculosis patient
Pseudomonas aeruginosa [32] = assay: Antimicrobial activity against Pseudomonas aeruginosa 2A1 tracheal isolates from mechanically ventilated tuberculosis patient
Pseudomonas aeruginosa [33] = assay: Antimicrobial activity against Pseudomonas aeruginosa 15H5 tracheal isolates from mechanically ventilated chronic respiratory insufficiency patient
Pseudomonas aeruginosa [34] = assay: Antimicrobial activity against Pseudomonas aeruginosa 65.33-2 tracheal isolates from mechanically ventilated tuberculosis patient
Pseudomonas aeruginosa [35] = assay: Antimicrobial activity against Pseudomonas aeruginosa 65.33-3 tracheal isolates from mechanically ventilated tuberculosis patient
Pseudomonas aeruginosa [36] = assay: Antimicrobial activity against Pseudomonas aeruginosa 65.36-1 tracheal isolates from mechanically ventilated tuberculosis patient
Pseudomonas aeruginosa [37] = assay: Antimicrobial activity against Pseudomonas aeruginosa 65.36-2 tracheal isolates from mechanically ventilated tuberculosis patient
Pseudomonas aeruginosa [38] = assay: Antimicrobial activity against Pseudomonas aeruginosa 65.36-3 tracheal isolates from mechanically ventilated tuberculosis patient
Pseudomonas aeruginosa [39] = assay: Antimicrobial activity against Pseudomonas aeruginosa 65.36-4 tracheal isolates from mechanically ventilated tuberculosis patient
Pseudomonas aeruginosa [40] = assay: Antimicrobial activity against Pseudomonas aeruginosa 65.38-2 tracheal isolates from mechanically ventilated tuberculosis patient
Pseudomonas aeruginosa [41] = assay: Antimicrobial activity against Pseudomonas aeruginosa ID7 tracheal isolates from mechanically ventilated tuberculosis patient

SMILES | Activity (Pseudomonas aeruginosa [1]) | Activity (Pseudomonas aeruginosa [2]) | Activity (Pseudomonas aeruginosa [3]) | Activity (Pseudomonas aeruginosa [4]) | Activity (Pseudomonas aeruginosa [5]) | Activity (Pseudomonas aeruginosa [6]) | Activity (Pseudomonas aeruginosa [7]) | Activity (Pseudomonas aeruginosa [8]) | Activity (Pseudomonas aeruginosa [10]) | Activity (Pseudomonas aeruginosa [11]) | Activity (Pseudomonas aeruginosa [12]) | Activity (Pseudomonas aeruginosa [13]) | Activity (Pseudomonas aeruginosa [14]) | Activity (Pseudomonas aeruginosa [15]) | Activity (Pseudomonas aeruginosa [16]) | Activity (Pseudomonas aeruginosa [19]) | Activity (Pseudomonas aeruginosa [22]) | Activity (Pseudomonas aeruginosa [24]) | Activity (Pseudomonas aeruginosa [25]) | Activity (Pseudomonas aeruginosa [26]) | also measured
C[C@H]1[C@H](NC(=O)/C(=N\OC(C)(C)C(=O)O)c2csc(N)n2)C(=O)N1S(=O)(=O)O | inactive | inactive | inactive | inactive | Active | Active | Active | Active | inactive | inactive | inactive | inactive | Active | Active | Active | Active | Active | Active | Active | Active | Activity (Pseudomonas aeruginosa [9]): Active; Activity (Pseudomonas aeruginosa [17]): Active; Activity (Pseudomonas aeruginosa [18]): Active; Activity (Pseudomonas aeruginosa [20]): Active; Activity (Pseudomonas aeruginosa [21]): Active; Activity (Pseudomonas aeruginosa [23]): Active; Activity (Pseudomonas aeruginosa [27]): Active; Activity (Pseudomonas aeruginosa [28]): Active; Activity (Pseudomonas aeruginosa [29]): inactive
NC[C@H]1O[C@H](O[C@H]2[C@H](O)[C@@H](O[C@H]3O[C@H](CO)[C@@H](O)[C@H](N)[C@H]3O)[C@H](N)C[C@@H]2N)[C@H](N)C[C@@H]1O | Active | Active | – | Active | Active | Active | Active | Active | Active | Active | Active | Active | Active | Active | Active | Active | Active | Active | Active | Active | Activity (Pseudomonas aeruginosa [30]): Active; Activity (Pseudomonas aeruginosa [31]): Active; Activity (Pseudomonas aeruginosa [32]): Active; Activity (Pseudomonas aeruginosa [9]): Active; Activity (Pseudomonas aeruginosa [17]): Active; Activity (Pseudomonas aeruginosa [18]): Active; Activity (Pseudomonas aeruginosa [33]): Active; Activity (Pseudomonas aeruginosa [20]): Active; Activity (Pseudomonas aeruginosa [21]): Active; Activity (Pseudomonas aeruginosa [23]): Active; Activity (Pseudomonas aeruginosa [27]): Active; Activity (Pseudomonas aeruginosa [34]): Active; Activity (Pseudomonas aeruginosa [35]): Active; Activity (Pseudomonas aeruginosa [28]): Active; Activity (Pseudomonas aeruginosa [36]): Active; Activity (Pseudomonas aeruginosa [37]): Active; Activity (Pseudomonas aeruginosa [38]): Active; Activity (Pseudomonas aeruginosa [39]): Active; Activity (Pseudomonas aeruginosa [40]): Active
C[C@@H](O)[C@H]1C(=O)N2C(C(=O)O)=C(S[C@@H]3CN[C@H](C(=O)N(C)C)C3)[C@H](C)[C@H]12 | inactive | inactive | inactive | inactive | inactive | – | Active | Active | inactive | inactive | inactive | inactive | Active | inactive | inactive | Active | Active | Active | Active | Active | Activity (Pseudomonas aeruginosa [30]): inactive; Activity (Pseudomonas aeruginosa [32]): inactive; Activity (Pseudomonas aeruginosa [17]): inactive; Activity (Pseudomonas aeruginosa [18]): inactive; Activity (Pseudomonas aeruginosa [20]): Active; Activity (Pseudomonas aeruginosa [34]): inactive; Activity (Pseudomonas aeruginosa [35]): inactive; Activity (Pseudomonas aeruginosa [38]): inactive; Activity (Pseudomonas aeruginosa [39]): inactive; Activity (Pseudomonas aeruginosa [29]): inactive; Activity (Pseudomonas aeruginosa [40]): inactive
CCN[C@@H]1C[C@H](N)[C@@H](O[C@H]2OC(CN)=CC[C@H]2N)[C@H](O)[C@H]1O[C@H]1OC[C@](C)(O)[C@H](NC)[C@H]1O | inactive | Active | inactive | inactive | Active | Active | Active | Active | – | inactive | inactive | inactive | Active | Active | inactive | Active | Active | Active | Active | Active | Activity (Pseudomonas aeruginosa [30]): inactive; Activity (Pseudomonas aeruginosa [32]): Active; Activity (Pseudomonas aeruginosa [21]): Active; Activity (Pseudomonas aeruginosa [23]): Active; Activity (Pseudomonas aeruginosa [27]): Active; Activity (Pseudomonas aeruginosa [39]): inactive; Activity (Pseudomonas aeruginosa [29]): inactive; Activity (Pseudomonas aeruginosa [40]): inactive
CCN1CCN(C(=O)N[C@@H](C(=O)N[C@@H]2C(=O)N3[C@@H]2SC(C)(C)[C@@H]3C(=O)O)c2ccccc2)C(=O)C1=O | inactive | inactive | inactive | inactive | Active | Active | Active | Active | inactive | inactive | inactive | inactive | Active | Active | Active | Active | Active | Active | Active | Active | Activity (Pseudomonas aeruginosa [30]): Active; Activity (Pseudomonas aeruginosa [32]): inactive; Activity (Pseudomonas aeruginosa [9]): Active; Activity (Pseudomonas aeruginosa [17]): Active; Activity (Pseudomonas aeruginosa [18]): Active; Activity (Pseudomonas aeruginosa [20]): Active; Activity (Pseudomonas aeruginosa [21]): Active; Activity (Pseudomonas aeruginosa [23]): Active; Activity (Pseudomonas aeruginosa [41]): Active; Activity (Pseudomonas aeruginosa [27]): Active; Activity (Pseudomonas aeruginosa [34]): Active; Activity (Pseudomonas aeruginosa [35]): inactive; Activity (Pseudomonas aeruginosa [28]): Active; Activity (Pseudomonas aeruginosa [36]): Active; Activity (Pseudomonas aeruginosa [37]): Active; Activity (Pseudomonas aeruginosa [38]): Active; Activity (Pseudomonas aeruginosa [39]): inactive; Activity (Pseudomonas aeruginosa [29]): inactive; Activity (Pseudomonas aeruginosa [40]): inactive

From ChEMBL document CHEMBL1147101, “Development and persistence of antimicrobial resistance in Pseudomonas aeruginosa: a longitudinal observation in mechanically ventilated patients” (Antimicrob Agents Chemother, 2007)
